Active and inactive are the calls of the source. Where only a bound is given, the exact number is not on record here.

What is called EC50 is the concentration giving half of the maximal effect. The AC50 is the midpoint of the concentration-response curve, whichever way the signal moves. In general, IC50 refers to the midpoint of a concentration-inhibition curve.

The target in one assay is Beta-galactosidase (Escherichia coli, UniProt Q8VNN2). It is filed as functional.
Assay [1] in a line: reduction of Shn3 3'UTR-driven luciferase in osteoblasts – cell-based, Clone20 osteoblasts, firefly luciferase, cherry-picked, dose response (AID 624132).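 Also: firefly luciferase luminescence from reporter carrying the Shn3 3'UTR in osteoblasts.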 It is filed as functional.
Assay [2] in a line: non-specific 3'UTR reporter inhibition in Clone20-Shn3RL – cell-based, Renilla luciferase, cherry-picked, counter-screen for Shn3 inhibitor project, dose response (AID 624133). The format is functional.
Another assay addresses Beta Lactamase (Pseudomonas aeruginosa, UniProt Q932Y6). Nature of the assay: BLA reporter interference, concentration series – BLA reporter cells, FRET fluorescence, artefact control for TLR9-MyD88 binding inhibitor project, dose response (AID 588341).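 Also: cell based assay in CHO-K1 cells stably expressing beta-lactamase.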 The format is cell-based.
Assay [3] concerns the target T1, Zinc finger protein mex-5 (Caenorhabditis elegans, UniProt Q9XUB2).
T1 sequence (Q9XUB2 whole entry): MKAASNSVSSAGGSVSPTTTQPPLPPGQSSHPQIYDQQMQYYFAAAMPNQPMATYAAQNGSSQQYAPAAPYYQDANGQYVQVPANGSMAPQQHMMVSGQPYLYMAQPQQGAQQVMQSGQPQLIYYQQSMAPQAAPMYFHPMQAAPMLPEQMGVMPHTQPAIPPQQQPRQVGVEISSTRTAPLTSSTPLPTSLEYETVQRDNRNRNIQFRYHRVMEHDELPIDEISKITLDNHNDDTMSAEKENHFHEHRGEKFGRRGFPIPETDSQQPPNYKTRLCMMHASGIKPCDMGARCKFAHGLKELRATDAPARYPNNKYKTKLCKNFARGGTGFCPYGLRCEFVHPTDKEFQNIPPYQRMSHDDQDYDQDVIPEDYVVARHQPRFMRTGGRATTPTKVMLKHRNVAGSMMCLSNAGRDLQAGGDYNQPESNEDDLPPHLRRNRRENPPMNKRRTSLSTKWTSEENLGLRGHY
Nature of the assay: potency of MEX-5 RNA-binding blockers – biochemical, C. elegans, fluorescence polarization, dose response (AID 1960).

The target in assay [4] is T2, RNA-binding protein pos-1 (Caenorhabditis elegans, UniProt G5EF15).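 Also: purified POS-1 fused to maltose binding protein made in E. coli; potency of compounds blocking POS-1 binding to fluorescent RNA.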
T2 sequence (G5EF15 whole entry): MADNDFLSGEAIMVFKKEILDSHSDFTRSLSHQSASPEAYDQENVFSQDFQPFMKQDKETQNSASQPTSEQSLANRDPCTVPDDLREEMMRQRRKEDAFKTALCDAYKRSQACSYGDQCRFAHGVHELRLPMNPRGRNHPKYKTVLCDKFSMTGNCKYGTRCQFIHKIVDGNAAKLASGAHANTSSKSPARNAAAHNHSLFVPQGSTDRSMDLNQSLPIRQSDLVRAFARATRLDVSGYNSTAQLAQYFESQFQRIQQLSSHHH
Nature of the assay: disruptors of C. elegans POS-1 RNA interaction – biochemical, fluorescence polarization, dose response (AID 1964). (Polarisation of emitted light reports the rotation of a fluorescent probe.)

Assay [5] addresses T3, Sentrin-specific protease 8 (Homo sapiens, UniProt Q96LD8).
T3 sequence (Q96LD8 whole entry): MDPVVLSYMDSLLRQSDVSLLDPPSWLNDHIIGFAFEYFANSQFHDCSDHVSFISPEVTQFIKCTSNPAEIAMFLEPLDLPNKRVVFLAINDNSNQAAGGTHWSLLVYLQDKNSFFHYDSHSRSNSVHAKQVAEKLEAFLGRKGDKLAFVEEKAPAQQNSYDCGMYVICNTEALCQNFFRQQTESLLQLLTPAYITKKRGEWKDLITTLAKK
The format is functional.

The next assay addresses T4, Hexokinase HKDC1 (Homo sapiens, UniProt Q2TB90).
T4 sequence (Q2TB90 whole entry): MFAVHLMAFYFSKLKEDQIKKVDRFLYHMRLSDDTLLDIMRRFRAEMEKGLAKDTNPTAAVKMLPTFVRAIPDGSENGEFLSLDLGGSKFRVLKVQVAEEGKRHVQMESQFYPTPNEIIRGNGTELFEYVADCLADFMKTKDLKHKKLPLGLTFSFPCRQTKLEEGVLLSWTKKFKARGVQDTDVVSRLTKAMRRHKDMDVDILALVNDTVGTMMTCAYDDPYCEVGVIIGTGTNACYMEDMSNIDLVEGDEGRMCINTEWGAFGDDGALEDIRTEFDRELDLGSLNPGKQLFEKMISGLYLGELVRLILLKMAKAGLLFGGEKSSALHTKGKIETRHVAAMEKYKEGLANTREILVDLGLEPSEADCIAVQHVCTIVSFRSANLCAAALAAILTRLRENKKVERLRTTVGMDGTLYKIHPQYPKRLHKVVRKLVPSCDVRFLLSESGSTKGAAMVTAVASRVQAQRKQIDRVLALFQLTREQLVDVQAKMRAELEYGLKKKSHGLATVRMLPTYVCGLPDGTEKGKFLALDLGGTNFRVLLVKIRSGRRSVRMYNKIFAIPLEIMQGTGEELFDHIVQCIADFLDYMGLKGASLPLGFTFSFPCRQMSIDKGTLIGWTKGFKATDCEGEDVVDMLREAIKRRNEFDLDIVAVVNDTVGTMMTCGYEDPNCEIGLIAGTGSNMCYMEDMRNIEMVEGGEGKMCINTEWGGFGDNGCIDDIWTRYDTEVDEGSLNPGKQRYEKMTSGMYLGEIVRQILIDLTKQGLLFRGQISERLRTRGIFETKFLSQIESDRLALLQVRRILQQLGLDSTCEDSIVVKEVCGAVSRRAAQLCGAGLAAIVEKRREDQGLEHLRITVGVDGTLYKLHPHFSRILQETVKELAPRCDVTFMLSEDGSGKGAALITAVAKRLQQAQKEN
Nature of the assay: inhibition of HKDC1 glucose phosphorylation – biochemical, W721R variant, dose response (AID 504729). The format is functional.

The nature of assay [6]: blockers of HIV-1 ZM109 envelope-driven cell-cell fusion – HeLa effector, CEM target cells, luciferase, cherry-pick, dose response (AID 652058).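 Also: luciferase signal from HIV-1 Env mediated cell-cell fusion of effector and target cells.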 The format is functional, cell-based.
In a further assay the target is Perilipin-1/ABHD5 (Homo sapiens, UniProt O60240+Q8WTS1). In words: Luminescence-based biochemical high throughput dose response assay for inhibitors of the interaction of the lipase co-activator protein, abhydrolase domain containing 5 (ABHD5) with perilipin-1 (PLIN1) (2K validation set). [Related pubchem assays (depositor defined):AID493027, AID493057].
The target of another assay is Phospholipase A2 (Homo sapiens, UniProt P04054). It is filed as functional.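 Also: confirmatory dose-response counterscreen on phospholipase A2, testing hits that came from an ultra-high-throughput screen for ATG4B inhibitors.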
Assay [7] addresses 1-acylglycerol-3-phosphate O-acyltransferase ABHD5/Perilipin-5 (Homo sapiens, UniProt Q00G26+Q8WTS1). Nature of the assay: Luminescence-based biochemical high throughput dose response assay for inhibitors of the interaction of the lipase co-activator protein, abhydrolase domain containing 5 (ABHD5) with perilipin-5 (MLDP; PLIN5) (2K validation set). [Related pubchem assays (depositor defined):AID493035, AID493241].

For assay [8], the target named is Peroxisome proliferator-activated receptor gamma/Nuclear receptor corepressor 2 (Homo sapiens, UniProt P37231+Q9Y618). It is filed as functional.
The target of assay [9] is Photoreceptor-specific nuclear receptor (Homo sapiens, UniProt Q9Y5X4). It is filed as functional.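 Also: potency for compounds that break the NR2E3 corepressor complex and count as activators.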
A further assay addresses Keap1/Nrf2 (Homo sapiens, UniProt Q14145). In words: disruptors of Keap1 binding to Nrf2 peptide – biochemical, fluorescence polarization, cherry-picked samples, dose response (AID 588683).

Chain of Perilipin-1/ABHD5 (Q8WTS1 whole entry, the tested form may be a part): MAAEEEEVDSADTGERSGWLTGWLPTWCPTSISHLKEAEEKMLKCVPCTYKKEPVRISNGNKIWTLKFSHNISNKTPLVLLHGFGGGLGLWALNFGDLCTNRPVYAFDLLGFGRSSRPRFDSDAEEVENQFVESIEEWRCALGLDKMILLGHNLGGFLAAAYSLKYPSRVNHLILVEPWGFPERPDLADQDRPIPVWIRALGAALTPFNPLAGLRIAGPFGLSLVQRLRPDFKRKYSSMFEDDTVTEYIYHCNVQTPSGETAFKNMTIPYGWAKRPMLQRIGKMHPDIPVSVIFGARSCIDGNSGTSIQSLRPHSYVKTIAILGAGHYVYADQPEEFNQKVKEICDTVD
Chain of Perilipin-1/ABHD5 (O60240 whole entry, the tested form may be a part): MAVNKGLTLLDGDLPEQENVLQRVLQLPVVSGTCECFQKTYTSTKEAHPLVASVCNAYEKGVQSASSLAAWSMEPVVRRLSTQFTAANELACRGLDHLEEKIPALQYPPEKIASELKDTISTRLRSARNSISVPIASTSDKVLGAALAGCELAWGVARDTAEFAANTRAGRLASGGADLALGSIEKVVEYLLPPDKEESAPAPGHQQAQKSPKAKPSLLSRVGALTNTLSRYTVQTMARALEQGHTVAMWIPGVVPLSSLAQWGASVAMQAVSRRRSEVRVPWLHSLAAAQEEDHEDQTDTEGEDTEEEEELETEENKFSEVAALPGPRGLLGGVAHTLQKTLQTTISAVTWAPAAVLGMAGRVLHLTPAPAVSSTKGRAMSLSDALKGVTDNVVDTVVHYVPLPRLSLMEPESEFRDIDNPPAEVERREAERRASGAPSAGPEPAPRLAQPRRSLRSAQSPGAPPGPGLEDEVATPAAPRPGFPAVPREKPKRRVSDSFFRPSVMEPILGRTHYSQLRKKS
Chain of Peroxisome proliferator-activated receptor gamma/Nuclear receptor corepressor 2 (P37231 whole entry): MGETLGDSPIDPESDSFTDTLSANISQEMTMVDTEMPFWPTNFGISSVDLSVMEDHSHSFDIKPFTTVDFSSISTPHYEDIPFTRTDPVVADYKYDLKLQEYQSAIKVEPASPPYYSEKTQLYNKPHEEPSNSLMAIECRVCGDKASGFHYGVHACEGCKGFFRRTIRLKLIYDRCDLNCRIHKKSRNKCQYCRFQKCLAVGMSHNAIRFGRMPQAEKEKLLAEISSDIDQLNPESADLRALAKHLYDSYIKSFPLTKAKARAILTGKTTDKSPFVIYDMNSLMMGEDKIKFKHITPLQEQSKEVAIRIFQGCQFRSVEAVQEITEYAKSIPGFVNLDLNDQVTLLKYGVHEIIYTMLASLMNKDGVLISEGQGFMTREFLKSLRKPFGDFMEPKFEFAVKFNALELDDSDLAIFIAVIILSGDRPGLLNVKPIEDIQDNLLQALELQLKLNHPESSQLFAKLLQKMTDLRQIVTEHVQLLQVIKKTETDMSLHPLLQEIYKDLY
Chain of Peroxisome proliferator-activated receptor gamma/Nuclear receptor corepressor 2 (Q9Y618 whole entry): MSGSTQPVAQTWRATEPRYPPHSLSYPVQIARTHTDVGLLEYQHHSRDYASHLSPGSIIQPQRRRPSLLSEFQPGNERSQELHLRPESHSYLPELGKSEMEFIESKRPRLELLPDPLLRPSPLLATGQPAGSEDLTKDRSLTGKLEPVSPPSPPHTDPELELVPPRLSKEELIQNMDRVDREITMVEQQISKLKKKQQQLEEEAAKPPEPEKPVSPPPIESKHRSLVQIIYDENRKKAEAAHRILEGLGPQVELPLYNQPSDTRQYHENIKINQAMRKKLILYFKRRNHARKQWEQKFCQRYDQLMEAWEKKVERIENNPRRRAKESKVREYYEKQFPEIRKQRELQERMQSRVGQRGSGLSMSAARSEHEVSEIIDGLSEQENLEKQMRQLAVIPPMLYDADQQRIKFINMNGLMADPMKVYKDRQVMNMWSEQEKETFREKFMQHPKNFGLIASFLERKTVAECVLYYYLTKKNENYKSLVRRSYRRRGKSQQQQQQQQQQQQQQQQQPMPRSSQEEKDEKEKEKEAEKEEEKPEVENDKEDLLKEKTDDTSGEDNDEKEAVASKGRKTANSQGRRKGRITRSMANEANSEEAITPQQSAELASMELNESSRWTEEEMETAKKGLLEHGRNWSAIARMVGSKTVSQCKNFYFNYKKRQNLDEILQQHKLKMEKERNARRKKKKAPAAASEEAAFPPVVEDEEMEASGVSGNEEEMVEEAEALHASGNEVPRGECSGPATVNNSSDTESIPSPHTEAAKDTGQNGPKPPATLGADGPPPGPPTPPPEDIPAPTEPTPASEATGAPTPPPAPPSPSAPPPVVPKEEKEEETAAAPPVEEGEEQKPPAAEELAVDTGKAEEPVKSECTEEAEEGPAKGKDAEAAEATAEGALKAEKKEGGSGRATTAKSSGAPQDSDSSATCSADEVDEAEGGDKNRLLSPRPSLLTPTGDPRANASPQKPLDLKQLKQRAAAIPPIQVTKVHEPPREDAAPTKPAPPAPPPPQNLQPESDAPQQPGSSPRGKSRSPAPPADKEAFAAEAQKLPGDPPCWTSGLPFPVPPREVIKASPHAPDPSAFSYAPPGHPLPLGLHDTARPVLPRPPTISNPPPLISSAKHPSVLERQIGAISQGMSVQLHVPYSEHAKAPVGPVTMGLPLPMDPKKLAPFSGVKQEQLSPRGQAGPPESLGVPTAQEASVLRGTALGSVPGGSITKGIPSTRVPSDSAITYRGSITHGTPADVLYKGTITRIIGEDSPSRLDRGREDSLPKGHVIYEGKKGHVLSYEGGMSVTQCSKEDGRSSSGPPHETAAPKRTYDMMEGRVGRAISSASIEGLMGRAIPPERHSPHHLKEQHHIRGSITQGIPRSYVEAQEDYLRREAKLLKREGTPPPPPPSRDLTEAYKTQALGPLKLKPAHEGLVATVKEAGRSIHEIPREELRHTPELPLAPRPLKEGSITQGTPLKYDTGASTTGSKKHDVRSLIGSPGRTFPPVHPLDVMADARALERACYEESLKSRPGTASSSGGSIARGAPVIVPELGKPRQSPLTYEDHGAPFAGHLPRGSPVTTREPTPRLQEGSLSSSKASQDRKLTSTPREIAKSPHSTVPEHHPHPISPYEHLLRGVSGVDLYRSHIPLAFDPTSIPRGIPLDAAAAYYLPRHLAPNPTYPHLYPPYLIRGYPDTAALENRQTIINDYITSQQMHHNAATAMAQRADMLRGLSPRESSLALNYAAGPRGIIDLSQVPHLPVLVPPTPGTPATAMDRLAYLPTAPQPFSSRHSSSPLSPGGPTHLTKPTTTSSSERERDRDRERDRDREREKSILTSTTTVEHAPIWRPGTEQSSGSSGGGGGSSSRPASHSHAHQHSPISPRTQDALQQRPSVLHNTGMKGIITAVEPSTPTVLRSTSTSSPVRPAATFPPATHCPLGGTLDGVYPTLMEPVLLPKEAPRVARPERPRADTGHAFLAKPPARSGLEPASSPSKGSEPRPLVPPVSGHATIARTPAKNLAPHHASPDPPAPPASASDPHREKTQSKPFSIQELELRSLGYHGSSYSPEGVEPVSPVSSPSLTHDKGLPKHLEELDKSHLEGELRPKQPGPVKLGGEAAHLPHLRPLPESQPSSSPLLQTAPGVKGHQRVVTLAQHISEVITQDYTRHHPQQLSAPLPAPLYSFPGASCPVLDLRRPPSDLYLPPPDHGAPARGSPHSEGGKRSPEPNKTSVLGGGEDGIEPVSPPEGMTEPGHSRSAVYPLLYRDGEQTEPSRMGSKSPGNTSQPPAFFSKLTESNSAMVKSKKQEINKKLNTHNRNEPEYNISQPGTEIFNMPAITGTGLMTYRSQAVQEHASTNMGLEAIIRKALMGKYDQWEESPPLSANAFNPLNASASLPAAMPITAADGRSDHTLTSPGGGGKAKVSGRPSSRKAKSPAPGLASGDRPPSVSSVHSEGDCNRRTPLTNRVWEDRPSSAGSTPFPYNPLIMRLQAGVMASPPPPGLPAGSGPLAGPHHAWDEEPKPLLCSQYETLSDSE
Chain of 1-acylglycerol-3-phosphate O-acyltransferase ABHD5/Perilipin-5 (Q00G26 whole entry, the tested form may be a part): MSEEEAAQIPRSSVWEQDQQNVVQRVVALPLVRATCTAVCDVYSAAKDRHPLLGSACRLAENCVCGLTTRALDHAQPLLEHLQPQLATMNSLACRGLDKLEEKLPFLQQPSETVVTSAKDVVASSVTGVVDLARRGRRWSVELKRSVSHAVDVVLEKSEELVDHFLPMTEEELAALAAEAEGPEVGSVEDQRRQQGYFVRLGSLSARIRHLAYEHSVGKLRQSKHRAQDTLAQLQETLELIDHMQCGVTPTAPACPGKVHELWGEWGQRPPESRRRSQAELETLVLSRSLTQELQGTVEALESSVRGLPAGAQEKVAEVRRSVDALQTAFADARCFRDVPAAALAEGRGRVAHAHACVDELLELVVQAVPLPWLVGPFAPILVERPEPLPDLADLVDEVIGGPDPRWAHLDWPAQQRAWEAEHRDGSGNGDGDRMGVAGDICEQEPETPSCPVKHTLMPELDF
Chain of 1-acylglycerol-3-phosphate O-acyltransferase ABHD5/Perilipin-5 (Q8WTS1 whole entry, the tested form may be a part): as the sequence (Q8WTS1 whole entry, the tested form may be a part) above
Chain of Beta Lactamase (Q932Y6 whole entry): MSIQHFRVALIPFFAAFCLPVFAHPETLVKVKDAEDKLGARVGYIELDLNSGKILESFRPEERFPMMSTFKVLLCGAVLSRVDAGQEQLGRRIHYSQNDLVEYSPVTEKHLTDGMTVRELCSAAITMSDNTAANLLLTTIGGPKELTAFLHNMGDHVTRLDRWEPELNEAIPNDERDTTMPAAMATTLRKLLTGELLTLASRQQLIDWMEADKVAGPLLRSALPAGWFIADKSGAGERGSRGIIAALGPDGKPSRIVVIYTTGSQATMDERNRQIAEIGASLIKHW
Chain of Phospholipase A2 (P04054 whole entry, the tested form may be a part): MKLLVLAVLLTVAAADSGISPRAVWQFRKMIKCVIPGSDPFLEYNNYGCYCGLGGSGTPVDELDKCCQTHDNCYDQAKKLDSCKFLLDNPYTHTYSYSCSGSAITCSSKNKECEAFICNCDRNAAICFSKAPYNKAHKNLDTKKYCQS

Turning to `CCC(=O)OCCNc1cc(Sc2nccn2C)c2nonc2c1[N+](=O)[O-]`, at Beta-galactosidase, the EC50 was > 31.5 µM (inactive). Further, the AC50 in assay [1] is 1.55 µM (active); in [2], 4.16 µM (active). Moreover, the 50% inhibitory concentration (IC50) at Beta Lactamase was 8.31 µM (active).

Consider `O=C1c2cc(F)ccc2-n2c1nc1ccccc1c2=O`, for which the EC50 in assay [3] and in assay [4] was > 300 µM (not active) throughout. Further, in assay [5], the half-inhibitory concentration (IC50) is 0.962 µM (active).

Consider `CCOC(=O)C1=C(c2ccc(OC)cc2)C(=O)c2ccccc2C1=O`, for which, on Hexokinase HKDC1, the IC50 was 2.32 µM (active).

`O=C1C(=O)c2ccccc2-c2ccccc21` [9,10-PHENANTHRENEQUINONE]: the AC50 in assay [6] is 3.1 µM (active). In addition, the IC50 at Perilipin-1/ABHD5 is 12.3 µM (inactive); on Phospholipase A2, 42.8 µM (inactive); in [7], 6.44 µM (active); in assay [8], 1.84 µM (active); in assay [9] it was > 39.8 µM (not active).

With `COCCCNC(=O)c1ccc2c3c(onc13)-c1ccccc1C2=O`, the concentration at half-maximal activity (AC50) at Keap1/Nrf2 is 1.73 µM (active).

(Values after ChEMBL document CHEMBL1201862, “PubChem BioAssay data set” (2004).)
